Patent US12660819B2, “Herbicidal derivatives” (SYNGENTA CROP PROTECTION AG, priority 2020, dated 2026)

Tests used:
Assay type in all cases: in vivo
[1] = system: Echinochloa crus-galli (ECHCG); assay: Pre-emergence Test (glasshouse, percentage damage to the plant); conditions: 1000 g/ha unless otherwise stated, five-point scale
Setaria faberi (SETFA) [2] = assay: as above; conditions: 1000 g/ha unless otherwise stated, five-point scale
[3] = system: Abutilon theophrasti (ABUTH); assay: as above; conditions: 1000 g/ha unless otherwise stated, five-point scale
[4] = system: Ipomoea hederacea (IPOHE); assay: as above; conditions: 1000 g/ha unless otherwise stated, five-point scale
Zea mays (ZEAMX) [5] = assay: as above; conditions: 1000 g/ha unless otherwise stated, five-point scale
[6] = system: Amaranthus retoflexus (AMARE); assay: as above; conditions: 1000 g/ha unless otherwise stated, five-point scale
[7] = system: Amaranthus retoflexus (AMARE); assay: Post-emergence Test (glasshouse, percentage damage to the plant); conditions: post-emergence spray, 1000 g/ha unless otherwise stated, evaluated after 13 days
Procedure, shortened: (§1)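 Spray treatment of sown glasshouse pots at 1000 g/ha (default rate), vehicle acetone/water 50:50 plus 0.5% Tween 20. Read-out: percentage damage after 13 days, converted to a score where 5 denotes 81-100% and 1 denotes 0-20%.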

[8] = system: Echinochloa crus-galli (ECHCG); assay: as above; conditions: post-emergence spray, 1000 g/ha unless otherwise stated, evaluated after 13 days
Procedure, shortened: as §1

Zea mays (ZEAMX) [9] = assay: as above; conditions: post-emergence spray, 1000 g/ha unless otherwise stated, evaluated after 13 days
Procedure, shortened: (§2)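 Damage was rated 13 days after treatment and expressed on a five-point scale: 5=81-100%, 4=61-80%, 3=41-60%, 2=21-40%, 1=0-20%. Spray was applied at 1000 g/ha unless otherwise stated, from acetone/water (50:50) with 0.5% Tween 20, to sown pots.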

[10] = system: Ipomoea hederacea (IPOHE); assay: as above; conditions: post-emergence spray, 1000 g/ha unless otherwise stated, evaluated after 13 days
Procedure, shortened: as §2

[11] = system: Abutilon theophrasti (ABUTH); assay: as above; conditions: post-emergence spray, 1000 g/ha unless otherwise stated, evaluated after 13 days
Procedure, shortened: as §1

Setaria faberi (SETFA) [12] = assay: as above; conditions: post-emergence spray, 1000 g/ha unless otherwise stated, evaluated after 13 days
Procedure, shortened: as §2

Compound	percentage damage to the plant, ECHCG [1]	percentage damage to the plant, SETFA (Setaria faberi (SETFA) [2])	percentage damage to the plant, ABUTH [3]	percentage damage to the plant, IPOHE [4]	percentage damage to the plant, ZEAMX (Zea mays (ZEAMX) [5])	percentage damage to the plant, AMARE [6]	Post-emergence Test AMARE, percentage damage to the plant (five-point scale) [7]	Post-emergence Test ECHCG, percentage damage to the plant (five-point scale) [8]	Post-emergence Test ZEAMX, percentage damage to the plant (five-point scale) (Zea mays (ZEAMX) [9])	Post-emergence Test IPOHE, percentage damage to the plant (five-point scale) [10]	Post-emergence Test ABUTH, percentage damage to the plant (five-point scale) [11]	Post-emergence Test SETFA, percentage damage to the plant (five-point scale) (Setaria faberi (SETFA) [12])
CCn1c(C)c(-c2ccc(F)c(C#N)c2)c(=O)c(C(=O)O)c1-c1ccc(Cl)c(Cl)c1 [Compound 91, 5-(3-cyano-4-fluoro-phenyl)-2-(3,4-dichlorophenyl)-1-ethyl-6-methyl-4-oxo-pyridine-3-carboxylic acid]	4 (4=61-80%)	4 (4=61-80%)	2 (2=21-40%)	3 (3=41-60%)	1 (1=0-20%)	2 (2=21-40%)	3 (3=41-60%)	4 (4=61-80%)	2 (2=21-40%)	3 (3=41-60%)	3 (3=41-60%)	4 (4=61-80%)
CCn1c(C)c(-c2ccc(F)c(C#N)c2)c(=O)c(C(=O)O)c1-c1ccc(Cl)c(Cl)c1 [Compound 92, 5-(3-cyano-4-fluoro-phenyl)-2-(3,4-dichlorophenyl)-1-ethyl-6-methyl-4-oxo-pyridine-3-carboxylic acid]	1 (1=0-20%)	1 (1=0-20%)	1 (1=0-20%)	1 (1=0-20%)	1 (1=0-20%)	1 (1=0-20%)	1 (1=0-20%)	1 (1=0-20%)	1 (1=0-20%)	3 (3=41-60%)	2 (2=21-40%)	1 (1=0-20%)
CCn1c(C)c(-c2ccc(SC)cc2)c(=O)c(C(=O)O)c1-c1ccc(Cl)c(Cl)c1 [Compound 93, 2-(3,4-dichlorophenyl)-1-ethyl-6-methyl-5-(4-methylsulfanylphenyl)-4-oxo-pyridine-3-carboxylic acid]	3 (3=41-60%)	4 (4=61-80%)	1 (1=0-20%)	1 (1=0-20%)	1 (1=0-20%)	1 (1=0-20%)	1 (1=0-20%)	3 (3=41-60%)	1 (1=0-20%)	2 (2=21-40%)	2 (2=21-40%)	2 (2=21-40%)
